Test results published in patent EP0500835B1, “A NOVEL QUINOLONE CARBOXYLIC ACID DERIVATIVE” (DAEWOONG PHARMACEUTICAL CO., LTD., priority 1990, dated 1992).
Converted amounts (≈) assume the structure as drawn.

What was measured:
[1] = Oral LD50 in male mice; conditions: mouse, in vivo, orally administered
Protocol: (§1) The compound of example 2 was orally administered to determine the LD50 for a group of male mice. […] The antibacterial activity for MRSA(Methicillin Resistant Staphyloccocus Aureus) was tested by the compound of example 2.

[2] = system: Staphylococcus aureus 693E; assay: Antibacterial activity for MRSA; format: cell-based; conditions: Staphylococcus aureus 693E (MRSA)
Protocol: as §1

[3] = system: Staphylococcus aureus 711E; assay: Antibacterial activity for MRSA; format: cell-based; conditions: Staphylococcus aureus 711E (MRSA)
Protocol: as §1

[4] = system: Staphylococcus aureus 703E; assay: Antibacterial activity for MRSA; format: cell-based; conditions: Staphylococcus aureus 703E (MRSA)
Protocol: as §1

[5] = system: Staphylococcus aureus 695E; assay: Antibacterial activity for MRSA; format: cell-based; conditions: Staphylococcus aureus 695E (MRSA)
Protocol: as §1

[6] = system: Staphylococcus aureus 697E; assay: Antibacterial activity for MRSA; format: cell-based; conditions: Staphylococcus aureus 697E (MRSA)
Protocol: as §1

[7] = system: Staphylococcus aureus 705E; assay: Antibacterial activity for MRSA; format: cell-based; conditions: Staphylococcus aureus 705E (MRSA)
Protocol: as §1

[8] = system: Staphylococcus aureus 706E; assay: Antibacterial activity for MRSA; format: cell-based; conditions: Staphylococcus aureus 706E (MRSA)
Protocol: as §1

[9] = system: Staphylococcus aureus 121E; assay: Antibacterial activity for MRSA; format: cell-based; conditions: Staphylococcus aureus 121E (MRSA)
Protocol: as §1

[10] = system: Staphylococcus aureus 707E; assay: Antibacterial activity for MRSA; format: cell-based; conditions: Staphylococcus aureus 707E (MRSA)
Protocol: as §1

[11] = system: Staphylococcus aureus 752E; assay: Antibacterial activity for MRSA; format: cell-based; conditions: Staphylococcus aureus 752E (MRSA)
Protocol: as §1

[12] = system: Staphylococcus aureus 694E; assay: Antibacterial activity for MRSA; format: cell-based; conditions: Staphylococcus aureus 694E (MRSA)
Protocol: as §1

[13] = system: Staphylococcus aureus 714E; assay: Antibacterial activity for MRSA; format: cell-based; conditions: Staphylococcus aureus 714E (MRSA)
Protocol: as §1

[14] = system: Staphylococcus aureus 690E; assay: Antibacterial activity for MRSA; format: cell-based; conditions: Staphylococcus aureus 690E (MRSA)
Protocol: as §1

[15] = system: Staphylococcus aureus 208E; assay: Antibacterial activity for MRSA; format: cell-based; conditions: Staphylococcus aureus 208E (MRSA)
Protocol: as §1

[16] = system: Staphylococcus aureus 701E; assay: Antibacterial activity for MRSA; format: cell-based; conditions: Staphylococcus aureus 701E (MRSA)
Protocol: as §1

[17] = system: Staphylococcus aureus 88 E; assay: Antibacterial activity for MRSA; format: cell-based; conditions: Staphylococcus aureus 88 E (MRSA)
Protocol: as §1

[18] = system: Staphylococcus aureus 708E; assay: Antibacterial activity for MRSA; format: cell-based; conditions: Staphylococcus aureus 708E (MRSA)
Protocol: as §1

[19] = system: Saphylococcus aureus 692E; assay: Antibacterial activity for MRSA; format: cell-based; conditions: Saphylococcus aureus 692E (MRSA)
Protocol: as §1

[20] = system: Staphylococcus aureus 256E; assay: Antibacterial activity for MRSA; format: cell-based; conditions: Staphylococcus aureus 256E (MRSA)
Protocol: as §1

[21] = system: E. coli DC 2; assay: In vitro antibacterial activity, MIC by agar dilution method; format: cell-based; conditions: Escherichia coli, DC2, read-out: In vitro Antibacterial Activity, MIC
Protocol: (§2) The typical examples of the present compounds were tested for antimicrobial activity in vitro against twenty strains of Gram-positive and Gram-negative microorganisms.
(§3) The numerals in the table 1 show minimum inhibitory concentrations(MIC in µg/ml). The minimum inhibitory concentrations were determined according to the agar dilution method recommended by Japan Society of Chemotherapy[Chemotherapy., 29, 76 (1981)].

[22] = system: K. oxytoca 1082E; assay: as above; format: cell-based; conditions: Klebsiella oxytoca; K. oxytoca 1082E; agar dilution method; read-out: In vitro Antibacterial Activity, MIC
Protocol: as §2, §3

[23] = system: P. aeruginosa 1592E; assay: as above; format: cell-based; conditions: Pseudomonas aeruginosa; P. aeruginosa 1592E; agar dilution method; read-out: In vitro Antibacterial Activity, MIC
Protocol: as §2, §3

[24] = system: P. aeruginosa 9027; assay: as above; format: cell-based; conditions: Pseudomonas aeruginosa; P. aeruginosa 9027; agar dilution method; read-out: In vitro Antibacterial Activity, MIC
Protocol: as §2, §3

[25] = system: P. aeruginosa 1771M; assay: as above; format: cell-based; conditions: Pseudomonas aeruginosa; P. aeruginosa 1771M; agar dilution method; read-out: In vitro Antibacterial Activity, MIC
Protocol: as §2, §3

[26] = system: E. coli DC 0; assay: as above; format: cell-based; conditions: Escherichia coli, DC0, read-out: In vitro Antibacterial Activity, MIC
Protocol: as §2, §3

[27] = system: S. faecium MD 86; assay: as above; format: cell-based; conditions: Enterococcus faecium, MD86; S. faecium MD 86; agar dilution method; read-out: In vitro Antibacterial Activity, MIC
Protocol: as §2, §3

[28] = system: S. aureus 503; assay: as above; format: cell-based; conditions: Staphylococcus aureus; S. aureus 503; agar dilution method; read-out: In vitro Antibacterial Activity, MIC
Protocol: as §2, §3

[29] = system: S. aureus 285; assay: as above; format: cell-based; conditions: Staphylococcus aureus; S. aureus 285; agar dilution method; read-out: In vitro Antibacterial Activity, MIC
Protocol: as §2, §3

[30] = system: P. aeruginosa 1771; assay: as above; format: cell-based; conditions: Pseudomonas aeruginosa; P. aeruginosa 1771; agar dilution method; read-out: In vitro Antibacterial Activity, MIC
Protocol: as §2, §3

[31] = system: S. pyogenes A 77; assay: as above; format: cell-based; conditions: Streptococcus pyogenes, A77; S. pyogenes A 77; agar dilution method; read-out: In vitro Antibacterial Activity, MIC
Protocol: as §2, §3

[32] = system: S. aureus SG 511; assay: as above; format: cell-based; conditions: Staphylococcus aureus, SG511; S. aureus SG 511; agar dilution method; read-out: In vitro Antibacterial Activity, MIC
Protocol: as §2, §3

[33] = system: S. pyogenes A 308; assay: as above; format: cell-based; conditions: Streptococcus pyogenes, A308; S. pyogenes A 308; agar dilution method; read-out: In vitro Antibacterial Activity, MIC
Protocol: as §2, §3

[34] = system: E. coli TEM; assay: as above; format: cell-based; conditions: Escherichia coli; E. coli TEM; agar dilution method; read-out: In vitro Antibacterial Activity, MIC
Protocol: as §2, §3

[35] = system: E. coli 1507E; assay: as above; format: cell-based; conditions: Escherichia coli; E. coli 1507E; agar dilution method; read-out: In vitro Antibacterial Activity, MIC
Protocol: as §2, §3

[36] = system: K. aerogenes 1522E; assay: as above; format: cell-based; conditions: Klebsiella aerogenes; K. aerogenes 1522E; agar dilution method; read-out: In vitro Antibacterial Activity, MIC
Protocol: as §2
(§4) The minimum inhibitory concentrations were determined according to the agar dilution method recommended by Japan Society of Chemotherapy[Chemotherapy., 29, 76 (1981)].

[37] = system: E. cloacae P99; assay: as above; format: cell-based; conditions: Enterobacter cloacae; E. cloacae P99; agar dilution method; read-out: In vitro Antibacterial Activity, MIC
Protocol: as §2, §4

[38] = system: E. cloacae 1321E; assay: as above; format: cell-based; conditions: Enterobacter cloacae; E. cloacae 1321E; agar dilution method; read-out: In vitro Antibacterial Activity, MIC
Protocol: as §2, §4

[39] = system: E. coli O 55; assay: as above; format: cell-based; conditions: Escherichia coli, O55; E. coli O 55; agar dilution method; read-out: In vitro Antibacterial Activity, MIC
Protocol: as §2, §4

[40] = system: S. typhimurium; assay: as above; format: cell-based; conditions: Salmonella enterica; S. typhimurium; agar dilution method; read-out: In vitro Antibacterial Activity, MIC
Protocol: as §2, §4

Compound: CSCC1CCN(c2c(F)cc3c(=O)c(C(=O)O)cn(C4CC4)c3c2F)C1 (stereo not shown) [Example 2, 1-cyclopropyl-6,8-difluoro-7-(3-methylthiomethylpyrrolidinyl)-1,4-dihydro-4-oxo-3-quinolinecarboxylic acid]
- LD50 [1]: > 3000 mg/kg
- Antibacterial Activity for MRSA [2]: 0.007 µg/mL
- Antibacterial Activity for MRSA [3]: 0.013 µg/mL
- Antibacterial Activity for MRSA [4]: 0.007 µg/mL
- Antibacterial Activity for MRSA [5]: 0.013 µg/mL
- Antibacterial Activity for MRSA [6]: 0.013 µg/mL
- Antibacterial Activity for MRSA [7]: 0.013 µg/mL
- Antibacterial Activity for MRSA [8]: 0.013 µg/mL
- Antibacterial Activity for MRSA [9]: 0.013 µg/mL
- Antibacterial Activity for MRSA [10]: 0.007 µg/mL
- Antibacterial Activity for MRSA [11]: 0.013 µg/mL
- Antibacterial Activity for MRSA [12]: 0.013 µg/mL
- Antibacterial Activity for MRSA [13]: 0.007 µg/mL
- Antibacterial Activity for MRSA [14]: 0.004 µg/mL
- Antibacterial Activity for MRSA [15]: 0.025 µg/mL
- Antibacterial Activity for MRSA [16]: 0.013 µg/mL
- Antibacterial Activity for MRSA [17]: 0.004 µg/mL
- Antibacterial Activity for MRSA [18]: 0.007 µg/mL
- Antibacterial Activity for MRSA [19]: 0.004 µg/mL
- Antibacterial Activity for MRSA [20]: 0.013 µg/mL
- MIC [21]: 0.781 µg/mL (≈ 1.98 µM)
- MIC [22]: 0.007 µg/mL (≈ 0.0177 µM)
- MIC [23]: 0.781 µg/mL (≈ 1.98 µM)
- MIC [24]: 0.781 µg/mL (≈ 1.98 µM)
- MIC [25]: 0.098 µg/mL (≈ 0.248 µM)
- MIC [26]: 0.781 µg/mL (≈ 1.98 µM)
- MIC [27]: 0.195 µg/mL (≈ 0.494 µM)
- MIC [28]: 0.002 µg/mL (≈ 0.00507 µM)
- MIC [29]: 0.002 µg/mL (≈ 0.00507 µM)
- MIC [30]: 0.391 µg/mL (≈ 0.991 µM)
- MIC [31]: 0.098 µg/mL (≈ 0.248 µM)
- MIC [32]: 0.002 µg/mL (≈ 0.00507 µM)
- MIC [33]: 0.195 µg/mL (≈ 0.494 µM)
- MIC [34]: 0.391 µg/mL (≈ 0.991 µM)
- MIC [35]: 0.391 µg/mL (≈ 0.991 µM)
- MIC [36]: 0.098 µg/mL (≈ 0.248 µM)
- MIC [37]: 0.098 µg/mL (≈ 0.248 µM)
- MIC [38]: 0.025 µg/mL (≈ 0.0634 µM)
- MIC [39]: 0.013 µg/mL (≈ 0.033 µM)
- MIC [40]: 0.049 µg/mL (≈ 0.124 µM)
